Experimental data as given in publication PMC4721062, “Oxadiazole-2-oxides may have other functional targets, in addition to SjTGR, through which they cause mortality in Schistosoma japonicum” (Parasites & Vectors, 2016).
“Also recorded” adds a separate entry of the source. Where two headings read alike, the source gives them in different places.

What was measured:
recombinant SjTGR = biological target: T1, recombinant SjTGR (Schistosoma japonicum, UniProt B5THG7); assay: Inhibition of TrxR activity of recombinant SjTGR (DTNB assay); type: biochemical; conditions: 50 nM SjTGR, 1 mM NADPH, 15 min preincubation, DTNB reduction
T1 sequence (B5THG7 1-596): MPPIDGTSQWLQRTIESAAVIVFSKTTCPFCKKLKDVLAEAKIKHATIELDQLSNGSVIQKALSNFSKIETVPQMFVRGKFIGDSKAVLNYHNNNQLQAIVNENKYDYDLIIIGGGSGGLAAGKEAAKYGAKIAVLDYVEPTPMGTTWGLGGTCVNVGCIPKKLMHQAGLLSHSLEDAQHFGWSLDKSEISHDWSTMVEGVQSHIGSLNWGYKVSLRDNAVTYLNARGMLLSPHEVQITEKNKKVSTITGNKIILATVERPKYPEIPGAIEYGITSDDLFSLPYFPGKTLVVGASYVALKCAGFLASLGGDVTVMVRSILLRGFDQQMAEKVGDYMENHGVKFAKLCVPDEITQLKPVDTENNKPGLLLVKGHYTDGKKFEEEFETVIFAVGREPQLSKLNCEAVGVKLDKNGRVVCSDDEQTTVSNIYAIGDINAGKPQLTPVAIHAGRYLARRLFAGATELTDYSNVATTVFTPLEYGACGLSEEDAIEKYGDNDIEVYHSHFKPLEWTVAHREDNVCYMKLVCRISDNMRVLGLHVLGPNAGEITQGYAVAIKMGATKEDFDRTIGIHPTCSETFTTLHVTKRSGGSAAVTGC
How it was run: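 SjTGR (50 nM) preincubated 15 min at room temperature with 1 mM NADPH and oxadiazole-2-oxides (2-20 μM). Reaction started with potassium phosphate pH 7.4, 10 mM EDTA, 100 μM NADPH, 3 mM DTNB; A412 increase followed over first 2 min, triplicates.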

adult S. japonicum = assay: microbe, parasite or virus in culture; type: cell-based; conditions: for mortality at 25 µM / killing at 25 µM / killing at 50 µM / killing at 100 µM / mortality at 50 µM / mortality at 100 µM / mortality at 10 µM: Schistosoma japonicum; for mortality at 25 µM / mortality at 50 µM / mortality at 100 µM / mortality at 10 µM: read-out: Mortality of adult worms; for killing at 25 µM / killing at 50 µM / killing at 100 µM / Killing activity 24hr / Killing activity 48hr / Killing activity 72hr: adult worms
How it was run: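 Adult worm pairs recovered by portal perfusion from ICR mice 35 days after infection with 50 cercariae, cultured in RPMI 1640 (pH 7.5, 20 mM HEPES, 10% FBS) at 37 °C, 5% CO2. Oxadiazole-2-oxides at 10, 25, 50, 100 μM; motility and survival scored microscopically at 24, 48, 72 h, death being no movement over 2 min; three independent experiments averaged.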

[1] = 25 μM, 24 h, read-out: Killing activity 24hr
[2] = 25 μM, 48 h, read-out: Killing activity 48hr
[3] = 25 μM, 72 h, read-out: Killing activity 72hr
[4] = 24 h, read-out: Killing activity 24hr
[5] = 48 h, read-out: Killing activity 48hr
[6] = 72 h, read-out: Killing activity 72hr

SMILES | IC50 (recombinant SjTGR; read-out: IC50 of SjTGR) | mortality at 25 µM (adult S. japonicum; 24 h) | killing at 25 µM (adult S. japonicum; [1]) | killing at 25 µM (adult S. japonicum; [2]) | killing at 25 µM (adult S. japonicum; [3]) | killing at 50 µM (adult S. japonicum; [4]) | killing at 50 µM (adult S. japonicum; [5]) | killing at 50 µM (adult S. japonicum; [6]) | killing at 100 µM (adult S. japonicum; [4]) | killing at 100 µM (adult S. japonicum; [5]) | killing at 100 µM (adult S. japonicum; [6]) | Killing activity 24hr (adult S. japonicum; 10 μM, 24 h) | Killing activity 48hr (adult S. japonicum; 10 μM, 48 h) | Killing activity 72hr (adult S. japonicum; 10 μM, 72 h) | further results
N#Cc1c(-c2ccc(COc3ccc(C=O)cc3)cc2)no[n+]1[O-] [Compound 26] | > 20 µM | > 75% | 85.7% | 100% | 100% | 100% | 100% | 100% | 100% | 100% | 100% | n.e. | n.e. | 16.7%D | IC50 of SjTGR (recombinant SjTGR): did not inhibit; also recorded: neither did they inhibit the SjTGR activity
N#Cc1c(-c2ccc(OC/C=C/CBr)cc2)no[n+]1[O-] [Compound 16] | 0.5 µM |  | 50% | 75% | 100% | 100% | 100% | 100% | 100% | 100% | 100% | n.e. | 50.0%D | 80.0%D | mortality at 50 µM (adult S. japonicum; 24 h): 100%
Cc1ccc2cccc(OCc3ccc(-c4no[n+]([O-])c4C#N)cc3)c2n1 [Compound 28] | > 20 µM | > 75% | 100% | 100% | 100% | 100% | 100% | 100% | 100% | 100% | 100% | 57.1%D | 57.1%D | 71.4%D | IC50 of SjTGR (recombinant SjTGR): did not inhibit
N#Cc1c(-c2ccc(COc3ccccc3)cc2)no[n+]1[O-] [Compound 23] | > 20 µM | > 75% | 100% | 100% | 100% | 100% | 100% | 100% | 100% | 100% | 100% | 62.5%D | 87.5%D | 100%D | IC50 of SjTGR (recombinant SjTGR): did not inhibit
C#CCOc1ccc(-c2no[n+]([O-])c2C#N)cc1 [Compound 20] | 3.3 µM |  | 50% | 100% | 100% | 70% | 100% | 100% | 100% | 100% | 100% | n.e. | 50.0%D | 75.0%D | mortality at 100 µM (adult S. japonicum): 100%
Cc1ccc(-c2no[n+]([O-])c2CO)cc1 [Compound 4b] | 1.7 µM |  | 63.6% | 81.8% | 66.7% | 60% | 80% | 100% | 57.1% | 100% | 100% | n.e. | n.e. | n.e. | mortality at 100 µM (adult S. japonicum; 24 h): 57.1 ± 2.1%; mortality at 100 µM (adult S. japonicum; 48 h): 100%
N#Cc1c(-c2ccc(OCc3ccccc3)cc2)no[n+]1[O-] [Compound 19] | > 20 µM | > 75% | 100% | 100% | 100% | 100% | 100% | 100% | 100% | 100% | 100% | 80.0%D | 100%D | 100%D | IC50 of SjTGR (recombinant SjTGR): did not inhibit; also recorded: neither did they inhibit the SjTGR activity
COc1ccc(-c2no[n+]([O-])c2C#N)cc1 [Compound 7a] |  | > 75% | 88.9% | 100% | 100% | 87.5% | 100% | 100% | 100% | 100% | 100% | 70.0%D | 100.0%D | 100.0%D | IC50 (recombinant SjTGR; IC50 of SjTGR): 12.2 µM; mortality at 10 µM (adult S. japonicum; 72 h): 100%
N#Cc1c(-c2ccc(Br)cc2)no[n+]1[O-] [Compound 7c] |  | > 75% | 77.8% | 100% | 100% | 100% | 100% | 100% | 100% | 100% | 100% | n.e. | 70.0%D | 70.0%D | IC50 (recombinant SjTGR; IC50 of SjTGR): 3.7 µM; mortality at 50 µM (adult S. japonicum; 24 h): 100%; mortality at 10 µM (adult S. japonicum; 72 h): 70 ± 7.1%
COc1ccc(-c2no[n+]([O-])c2CO)cc1 [Compound 4a] | 2.7 µM |  | 50% | 100% | 100% | 88.9% | 100% | 100% | 100% | 100% | 100% | 37.5%D | 37.5%D | 50.0%D | mortality at 100 µM (adult S. japonicum): 100%
N#Cc1c(-c2ccc(OCCBr)cc2)no[n+]1[O-] [Compound 12] | 21.7 µM | > 75% | 80% | 100% | 100% | 88.9% | 100% | 100% | 100% | 100% | 100% | sluggish | sluggish | 55.6%D | 
N#Cc1c(-c2ccc(O)cc2)no[n+]1[O-] [Compound 8] |  |  | 50% | 66.7% | 100% | 77.8% | 88.9% | 100% | 100% | 100% | 100% | n.e. | 57.1%D | 71.4%D | IC50 (recombinant SjTGR; IC50 of SjTGR): 37.4 µM; mortality at 10 µM (adult S. japonicum; 72 h): 71.4 ± 0.9%
Cc1ccc(-c2no[n+]([O-])c2C#N)cc1 [Compound 7b] |  | > 75% | 100% | 100% | 100% | 100% | 100% | 100% | 100% | 100% | 100% | 16.7%D | 50.0%D | 83.3%D | IC50 (recombinant SjTGR; IC50 of SjTGR): 14.2 µM; mortality at 10 µM (adult S. japonicum; 72 h): 83.3 ± 4.7%
N#Cc1c(-c2ccc(OCCCBr)cc2)no[n+]1[O-] [Compound 13] | 1.6 µM |  |  | 100% | 100% | 100% | 100% | 100% | 100% | 100% | 100% | sluggish | 90.0%D | 100%D | mortality at 50 µM (adult S. japonicum; 24 h): 100%; Killing activity 24hr (adult S. japonicum; 25 μM, 24 h): sluggish
